Here are results for 26 compounds from US7265152B2 (ViroPharma Incorporated, priority 2002, dated 2007).

Like-named read-outs stand apart in the source and are kept apart here.

Assay [1] relates to HCV replicon (BB7 sequence) in Huh-7-Clone A cells. Nature of the assay: HCV replicon assay: ELISA of NS5A protein in replicon-containing cells (Inhibition of Viral RNA Replication). The assay is classed as cell-based. The following applies: read-out: Replicon. Summed up:
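EC50 taken from an 8-point serially diluted dose curve, with NS5A level as read-out: fixed cells probed with primary monoclonal and HRP-conjugated secondary, TMB developed 30 min, OD 650 nm. Compound exposure 72 h in Huh-7-Clone A replicon cells (BB7 sequence).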

For a further assay, the target named is T1, HCV NS5B (Hepatitis C virus genotype 1b, UniProt Q9WMX2).
T1 construct: fusion protein, of which the carboxyl terminal 21 amino acids were removed to enhance its solubility; His tag (GSHHHHHH); made in house; host or cells: E. coli
As to the kind of experiment: Inhibition of viral RNA-dependent RNA polymerase (RdRp), in vitro biochemical assay. More on the design: species or system HCV genotype 1b virus (BB7). The following applies: read-out: HCV pol-BB7 IC50. The gist of the method:
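IC50 values are the concentrations that halve in vitro RNA synthesis by HCV NS5B polymerase. The enzyme was a C-terminally truncated (Δ21), His-tagged genotype 1b (BB7 consensus) protein purified from E. coli.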

[2] abbreviates: Hepatitis C virus, HCV replicon, range of EC50.
Where [3] appears, read: HCV NS5B RdRp, BB7, reported as range class.
Setting [4] is: Hepatitis C virus, HCV replicon assay, ranges of EC50.
[5] abbreviates: HCV NS5B RdRp, BB7, class symbols A-D.
Where [6] appears, read: HCV NS5B RdRp, BB7, activity class.
[7] abbreviates: Hepatitis C virus, ranges of EC50 in HCV replicon assay.
[8] abbreviates: Hepatitis C virus, Huh-7-Clone A, NS5A ELISA, 72-hour incubation, ranges of EC50.
The mark [9] stands for this setting: purified His-tagged NS5B (BB7), carboxyl terminal 21 amino acids removed.
[10] abbreviates: Hepatitis C virus, HCV replicon assay, ranges of 50% effective concentration (EC50).
The mark [11] stands for this setting: HCV NS5B polymerase, BB7 (genotype 1b), values given as range classes A-D.

In the case of `CNC(=O)c1c(-c2ccc(F)cc2)oc2cc(C(O)C(C)C)c(OC(C)C)cc12` (stereo not shown) [Example 238, 2-(4-Fluoro-phenyl)-6-(1-hydroxy-2-methyl-propyl)-5-isopropoxy-benzofuran-3-carboxylic acid methylamide], the EC50 in assay [1] (setting [2]) is under 1 µM. The IC50 on HCV NS5B (setting [3]) is at most 0.5 µM.
As for `CNC(=O)c1c(-c2ccc(F)cc2)oc2cc(-c3c(C)noc3COC)c(OC)cc12` [Example 280, 2-(4-Fluoro-phenyl)-5-methoxy-6-(5-methoxymethyl-3-methyl-isoxazol-4-yl)-benzofuran-3-carboxylic acid methylamide], the EC50 in assay [1] (setting [4]) is under 1 µM. Besides, the 50% inhibitory concentration (IC50) on HCV NS5B (setting [5]) is at most 0.5 µM.
As for `CCNc1cc2oc(-c3ccc(F)cc3)c(C(=O)NC)c2cc1OCCCBr` [Example 365, 5-(3-Bromo-propoxy)-6-ethylamino-2-(4-fluoro-phenyl)-benzofuran-3-carboxylic acid methylamide], the EC50 in assay [1] (setting [4]) was under 1 µM. Moreover, the IC50 at HCV NS5B (setting [6]) was at most 0.5 µM.
On to “2-(4-Fluoro-phenyl)-6-(1H-imidazol-2-yl)-5-methoxy-benzofuran-3-carboxylic acid methylamide [Example 296]”, for which the EC50 in assay [1] (HCV replicon assay, ranges of EC50) was under 1 µM. Moreover, the 50% inhibitory concentration (IC50) at HCV NS5B (setting [5]) was at most 0.5 µM.
For `CNC(=O)c1c(-c2ccc(F)cc2)oc2cc(-c3nnn[nH]3)c(OC(C)C)cc12` [Example 139, 2-(4-Fluoro-phenyl)-5-isopropoxy-6-(1H-tetrazol-5-yl)-benzofuran-3-carboxylic acid methylamide], the EC50 in assay [1] (setting [7]) was over 30 µM. Further, on HCV NS5B (HCV NS5B RdRp, BB7 genotype 1b), the IC50 lay within 0.5 to 5 µM.
As for `CNC(=O)c1c(-c2ccc(F)cc2)oc2cc(N(CC(O)c3ccc(F)cc3)S(C)(=O)=O)c(OC(C)C)cc12` (stereo not shown) [Example 322, 2-(4-Fluoro-phenyl)-6-{[2-(4-fluoro-phenyl)-2-hydroxy-ethyl]-methanesulfonyl-amino}-5-isopropoxy-benzofuran-3-carboxylic acid methylamide], the EC50 in assay [1] (setting [4]) is under 1 µM. In addition, on HCV NS5B (setting [5]), the IC50 is at most 0.5 µM.
For `CNC(=O)c1c(-c2ccc(F)cc2)oc2cc(N(Cc3nnnn3C)S(C)(=O)=O)c(OC(C)C)cc12` [Example 269, 2-(4-Fluoro-phenyl)-5-isopropoxy-6-[methanesulfonyl-(1-methyl-1H-tetrazol-5-ylmethyl)-amino]-benzofuran-3-carboxylic acid methylamide], in that order: under 1 µM and at most 0.5 µM.
Take `CNC(=O)c1c(-c2ccccc2)oc2ccc(C(C)(C)C)cc12` [Example 74, 5-tert-Butyl-2-phenyl-benzofuran-3-carboxylic acid methylamide]: in assay [1] (setting [8]), the EC50 is under 10 µM. The IC50 on HCV NS5B (setting [9]) is at most 0.5 µM.
As to `CNC(=O)c1c(-c2ccc(F)cc2)oc2cc(C(C)(C)NS(C)(=O)=O)c(OC)cc12` [Example 390, 2-(4-Fluoro-phenyl)-6-(1-methanesulfonylamino-1-methyl-ethyl)-5-methoxy-benzofuran-3-carboxylic acid methylamide], in assay [1] (setting [10]), the EC50 was under 10 µM. For the same compound, the IC50 on HCV NS5B (setting [11]) was at most 0.5 µM.
`CNC(=O)c1c(-c2ccc(F)cc2)oc2cc(N(C3CCC3)S(C)(=O)=O)c(OC(C)C)cc12` [Example 190, 6-(Cyclobutyl-methanesulfonyl-amino)-2-(4-fluoro-phenyl)-5-isopropoxy-benzofuran-3-carboxylic acid methylamide]: in assay [1] (setting [2]), the EC50 is under 1 µM. At HCV NS5B (setting [3]), the IC50 is at most 0.5 µM.
Take `CNC(=O)c1c(-c2ccccc2)oc2ccc(OC(C)C)cc12` [Example 59, 5-Isopropoxy-2-phenyl-benzofuran-3-carboxylic acid methylamide]: the EC50 in assay [1] (setting [8]) was under 30 µM. In addition, on HCV NS5B (setting [9]), the concentration for half-maximal inhibition (IC50) lay in the range of 0.5 to 5 µM.
On to `CNC(=O)c1c(-c2ccc(F)cc2)oc2cc(N(C)S(C)(=O)=O)c(OCc3ccc4c(c3)C(=O)OC(C)(C)O4)cc12` [Example 329, 5-(2,2-Dimethyl-4-oxo-4H-benzo[1,3]dioxin-6-ylmethoxy)-2-(4-fluoro-phenyl)-6-(methanesulfonyl-methyl-amino)-benzofuran-3-carboxylic acid methylamide], for which, in assay [1] (setting [4]), the EC50 is under 1 µM. On HCV NS5B (setting [5]), the IC50 was at most 0.5 µM.
The corresponding values for `CNC(=O)c1c(-c2ccc(F)cc2)oc2cc(N(Cc3ccncc3)S(C)(=O)=O)c(OC)cc12` [Example 299, 2-(4-Fluoro-phenyl)-6-(methanesulfonyl-pyridin-4-ylmethyl-amino)-5-methoxy-benzofuran-3-carboxylic acid methylamide] are under 1 µM and at most 0.5 µM.
For `CNC(=O)c1c(-c2ccc(F)cc2)oc2ccc(OCc3ccc(C(=O)O)cc3)cc12` [Example 259, 4-[2-(4-Fluoro-phenyl)-3-methylcarbamoyl-benzofuran-5-yloxymethyl]-benzoic acid], in that order: under 30 µM and 0.5 to 5 µM.
Consider `CNC(=O)c1c(-c2ccccc2F)oc2ccc(OC)cc12` [Example 58, 2-(2-Fluoro-phenyl)-5-methoxy-benzofuran-3-carboxylic acid methylamide], for which the EC50 in assay [1] (setting [8]) is under 10 µM. Moreover, the IC50 on HCV NS5B (setting [9]) lay in the range of 0.5 to 5 µM.
Turning to `CNC(=O)c1c(-c2ccc(F)cc2)oc2cc(N3CCOCC3)c(OC(C)c3nccs3)cc12` (stereo not shown) [Example 254, 2-(4-Fluoro-phenyl)-6-morpholin-4-yl-5-(1-thiazol-2-yl-ethoxy)-benzofuran-3-carboxylic acid methylamide], the EC50 in assay [1] (setting [4]) is under 1 µM. The IC50 at HCV NS5B (setting [5]) is at most 0.5 µM.
Turning to `CNC(=O)c1c(-c2ccc(F)cc2)oc2cc(N(C)S(C)(=O)=O)c(OCC(=O)Nc3nccs3)cc12` [Example 415, 2-(4-Fluoro-phenyl)-6-(methanesulfonyl-methyl-amino)-5-(thiazol-2-ylcarbamoylmethoxy)-benzofuran-3-carboxylic acid methylamide], the EC50 in assay [1] (setting [10]) was under 1 µM. Moreover, the IC50 on HCV NS5B (setting [11]) is at most 0.5 µM.
Turning to `C=CCN(c1cc2oc(-c3ccc(F)cc3)c(C(=O)NC)c2cc1OC(C)C)S(C)(=O)=O` [Example 195, 6-(Allyl-methanesulfonyl-amino)-2-(4-fluoro-phenyl)-5-isopropoxy-benzofuran-3-carboxylic acid methylamide], in assay [1] (setting [2]), the EC50 was under 1 µM. On HCV NS5B (setting [3]), the IC50 was at most 0.5 µM.
For the compound `CNC(=O)c1c(-c2ccc(F)cc2)oc2cc(S(=O)(=O)NC3CCC3)c(OC(C)C)cc12` [Example 150, 6-Cyclobutylsulfamoyl-2-(4-fluoro-phenyl)-5-isopropoxy-benzofuran-3-carboxylic acid methylamide], the EC50 in assay [1] (setting [7]) was under 30 µM. For the same compound, the IC50 on HCV NS5B (HCV NS5B RdRp, BB7 genotype 1b) was 0.5 to 5 µM.
`CNC(=O)c1c(-c2ccc(F)cc2)oc2cc(N3CCOCC3)c(OCc3noc(-c4ccc(OC)cc4)n3)cc12` [Example 214, 2-(4-Fluoro-phenyl)-5-[5-(4-methoxy-phenyl)-[1,2,4]oxadiazol-3-ylmethoxy]-6-morpholin-4-yl-benzofuran-3-carboxylic acid methylamide]: the EC50 in assay [1] (setting [2]) was under 1 µM. On HCV NS5B (setting [3]), the IC50 was 0.5 to 5 µM.
For `CNC(=O)c1c(-c2ccc(F)cc2)oc2cc(S(=O)(=O)N3CCSCC3)c(OC(C)C)cc12` [Example 175, 2-(4-Fluoro-phenyl)-5-isopropoxy-6-(thiomorpholine-4-sulfonyl)-benzofuran-3-carboxylic acid methylamide], in that order: under 1 µM and at most 0.5 µM.
Consider `CCOCc1cc(-c2cc3oc(-c4ccc(F)cc4)c(C(=O)NC)c3cc2OC)no1` [Example 350, 6-(5-Ethoxymethyl-isoxazol-3-yl)-2-(4-fluoro-phenyl)-5-methoxy-benzofuran-3-carboxylic acid methylamide], for which the EC50 in assay [1] (setting [4]) is under 1 µM. Further, at HCV NS5B (setting [6]), the IC50 was at most 0.5 µM.
Consider `CNC(=O)c1c(-c2ccc(F)cc2)oc2cc(-c3cc[nH]c3)c(OC)cc12` [Example 317, 2-(4-Fluoro-phenyl)-5-methoxy-6-(1H-pyrrol-3-yl)-benzofuran-3-carboxylic acid methylamide], for which the EC50 in assay [1] (setting [4]) is under 1 µM. Moreover, the IC50 on HCV NS5B (setting [5]) was in the range of 5 to 30 µM.
With `CNC(=O)c1c(-c2ccc(F)cc2)oc2cc(N3CCOCC3)c(OCc3nsc(Cl)n3)cc12` [Example 206, 5-(5-Chloro-[1,2,4]thiadiazol-3-ylmethoxy)-2-(4-fluoro-phenyl)-6-morpholin-4-yl-benzofuran-3-carboxylic acid methylamide], in assay [1] (setting [2]), the EC50 is under 1 µM. Moreover, the concentration for half-maximal inhibition (IC50) on HCV NS5B (setting [3]) fell in the range of 0.5 to 5 µM.
`CNC(=O)c1c(-c2ccc(F)cc2)oc2cc(C3CCCN3C(N)=O)c(OC)cc12` (stereo not shown) [Example 368, 2-[2-(4-Fluoro-phenyl)-5-methoxy-3-methylcarbamoyl-benzofuran-6-yl]-pyrrolidine-1-carboxylic acid amide]: the EC50 in assay [1] (setting [4]) was under 1 µM. Besides, the IC50 on HCV NS5B (setting [6]) was at most 0.5 µM.
The corresponding values for `CNC(=O)c1c(-c2ccc(F)cc2)oc2cc(-c3c(COC)noc3C3CC3)c(OC)cc12` [Example 344, 6-(5-Cyclopropyl-3-methoxymethyl-isoxazol-4-yl)-2-(4-fluoro-phenyl)-5-methoxy-benzofuran-3-carboxylic acid methylamide] are under 1 µM and at most 0.5 µM.

By IC50 is commonly meant the concentration that inhibits the measured activity by half.
